Where a SMILES comes first, the peptide text is derived from it. Bridges are numbered along the chain shown (N, C = ends). [ ]: non-standard residue; d: D form. The star is where a group is joined. X1 = CCC(C)C(N)C1=NC(C(=O)*)CS1; dOrn = NCCC[C@@H](N)C(=O)O

A short description of one experiment: HK1 enzyme inhibitors – biochemical, selectivity assay for HKDC1 inhibitor project, dose response (AID 504763).
Conditions: not given
In the case of `O=c1c2ccccc2nc(/C=C/c2cccnc2)n1Cc1ccccc1` [MLS000709026], the IC50 is > 80 µM. As for `Cc1nc([N+](=O)[O-])c(Br)n1Cc1ccc(Cl)c(Cl)c1` [MLS000730654], the IC50 is > 80 µM.

The molecule `Cc1ccc(SC2=C(Sc3ccc(C)cc3)C(=O)c3ccccc3C2=O)cc1` [MLS000756557] returned an IC50 of 20 µM.

In the case of `O=C1C(Nc2ccc(O)cc2)=CC(=NS(=O)(=O)c2cccs2)c2ccccc21` [MLS000775432], the IC50 amounted to 6.28 µM. On the same count and under the same terms, to `CCc1nc2sc3c(O)ncnc3c2c2c1CSC(C)(C)C2` [MLS000776813] belongs 21.8 µM; to `CC(C)c1nc2oc3c(O)ncnc3c2c2c1COC(C)(C)C2` [MLS000779024], 5.26 µM; to `Cc1ccc(S(=O)(=O)N=C2C=C(Nc3cccc(C(=O)O)c3)C(=O)c3ccccc32)cc1` [MLS000948051], 6.79 µM.

Consider `CCOC(=O)CSc1nc2ccc(C)cc2n2cnnc12` [MLS000999625], for which the midpoint of inhibition, the IC50, lay at 12.9 µM.

Turning to `O=Cc1[nH]c2ccccc2c1N(C(=O)CCl)c1ccccc1` [MLS001029456], the IC50 is > 80 µM. On the same count and under the same terms, the value for `O=C(/C=C/c1ccco1)NCC(=O)NNC1=c2ccccc2=NC1=O` [MLS001075666] was > 80 µM. On the same count and under the same terms, to `N#CC(C(=O)CCl)c1nc2c(s1)CCc1ccccc1-2` (stereo not given) [MLS001171530] belongs 38.3 µM; to `CC(=O)N(C1=C(Cl)C(=O)c2ccccc2C1=O)c1ccc(C(=O)O)cc1` [MLS001196720], 8.68 µM.

Regarding `COc1ccc(OC)c(N2C(=O)C(=Cc3ccco3)C(=O)NC2=S)c1` [MLS001197216], the IC50 was > 80 µM. As to `O=C(O)c1ccc(N=Cc2c(O)ccc3ccccc23)cc1` [MLS001205050], it took 70.8 µM to reach half-maximal inhibition (IC50). The same measure, in the same setting: to `COC(=O)c1cc(C)nc2c1C(=O)C(=O)C=C2N1CCOCC1` [MLS001208989] belongs 16.6 µM. Consider `CCc1ccc2c(c1)C(NC(C)=O)C(=O)N2CCN1CCOCC1` (stereo not given) [MLS001215951], for which the concentration for half-maximal inhibition (IC50) was > 80 µM. As for `CC(=O)NC1C(=O)N(CCN2CCOCC2)c2ccc(F)cc21` (stereo not given) [MLS001215963], the IC50 is > 80 µM. Still for that read-out and setting: the value for `CC(=O)NC1C(=O)N(CCN2CCOCC2)c2ccc(Cl)cc21` (stereo not given) [MLS001215975] was > 80 µM. On the same count and under the same terms, to `CC(=O)NC1C(=O)N(CCN2CCOCC2)c2ccc(Br)cc21` (stereo not given) [MLS001215987] belongs > 80 µM. The same measure, in the same setting: the value for `CCCCC(CC)CNC(=N)NC(=N)NCCCCCCNC(=N)NC(=N)NCC(CC)CCCC` (stereo not given) [MLS002153995] was 38.7 µM.

`CCC(C)C(N)C1=NC(C(=O)N[C@@H](CC(C)C)C(=O)N[C@H](CCC(=O)O)C(=O)N[C@H](C(=O)N[C@H]2CCCCNC(=O)[C@H](CC(N)=O)NC(=O)[C@@H](CC(=O)O)NC(=O)[C@H](Cc3c[nH]cn3)NC(=O)[C@@H](Cc3ccccc3)NC(=O)[C@H]([C@@H](C)CC)NC(=O)[C@@H](CCCN)NC2=O)[C@@H](C)CC)CS1` (stereo not given in full) [MLS002207255] (X1-L[dE]IK[dOrn]I[dF]H[dD]N; lactam 4-C): the IC50 was > 80 µM. Same read-out and setting: to `COC1=CC(=O)C=C(OC)C1=O` [MLS002207260] belongs 3.54 µM. On to `Oc1c(Cl)c(N=CCc2ccccc2)c(O)c2ccccc12` [MLS002608293], for which the IC50 was found to be 18.5 µM.

On to `Nc1c(Br)cc2c3c(cccc13)-c1ccccc1-2` [MLS002694423], for which the midpoint of inhibition, the IC50, lay at 9.59 µM. Same read-out and setting: the value for `Cc1[nH]c2c(=O)c3c(c(=O)c=2[nH]c1C)C1C=CC3CC1` [MLS002701599] was 2.08 µM; that for `COC1=CC(=O)c2c(ccc3ncnc(N)c23)C1=O` [MLS002701780] was 1.83 µM; that for `COc1ccc(NC(=O)CSc2ccc(-c3ccco3)nn2)cc1OC` [MLS-0374858.0001] was 17.7 µM. Take `CCN(CC)C(=O)c1ccc(C(=O)c2c(C)cc(C)cc2C)cc1` [N,N-diethyl-4-[oxo-(2,4,6-trimethylphenyl)methyl]benzamide]: the IC50 was > 80 µM.

The experiment is the same for the next values; noted with them: inactive by the depositor's call.
The molecule `Cc1cc(C)c(S(=O)(=O)N=C2C=C(Nc3ccc(C(=O)O)cc3)C(=O)c3ccccc32)c(C)c1` [MLS000948031] yielded an IC50 of 27.3 µM. Still for that read-out and setting: to `COP(=O)(OC)c1ccc(NCc2cc(O)ccc2O)cc1` [MLS002702382] belongs 26.2 µM.
